{"source": "patent US11331376B2", "about": "“Oral administration of unstable or poorly-absorbed drugs” (InnoPharmax, Inc., priority 2014, dated 2022)", "key": {"[1]": {"test_system": "STZ-induced diabetic mice", "test": "In vivo hypoglycemic study, blood glucose after oral gavage in STZ-induced diabetic mice", "design": "species or system male C57BL/6JNarl mice", "description": "Diabetes was induced in male C57BL/6JNarl mice (8 weeks age, around 20 grams body weight) by two tail vein injections of streptozotocin (STZ) (first: 75 mg/kg, second: 150 mg/kg). Induction of diabetes in mice was verified by measuring glucose concentration in a blood sample that was obtained from the tail vein. […] An composition containing 200 IU/kg of insulin was administered by oral gavage to each of eight STZ-induced diabetic mice in three groups (i.e., 24 mice total). A first group each received free non-modified insulin suspended in about 160-230 microliters (depending on animal weight) of a 3.78% (w/w) NaHCO3 antacid solution. A second group each received insulin in the form of Formulation 1 suspended in about 160-230 microliters of phosphate-buffered saline (PBS). A third group received Formulation 1 insulin in the form of Formulation 1 suspended in about 160-230 microliters of a 3.78% (w/w) NaHCO3 antacid solution (i.e., a ten-fold dilution of Formulation 1). […] Blood samples were drawn from each mouse following gavage, and blood glucose levels in those samples were determined. […] Drug remaining in the formulation was analyzed, and in vivo potency was also assessed by administering insulin formulation into streptozotocin-induced diabetic mice and measuring blood glucose with a glucometer."}}, "data": [{"substance": "free insulin: non-modified human insulin not combined with a SMEDDS-containing composition", "values": [{"measurement": "blood glucose levels at any time point", "setting": "[1]; 200 IU/kg free insulin solution by oral gavage", "result": "No significant differences in the blood glucose levels"}, {"measurement": "blood glucose levels over study period", "setting": "[1]; 200 IU/kg oral gavage, free insulin in 3.78% NaHCO3 antacid solution", "result": "did not vary significantly"}, {"measurement": "trans-monolayer transport of insulin", "setting": "Caco-2 cell monolayers", "result": "No trans-monolayer transport"}]}]}
